In patent US20220080027A1, “METHODS OF TREATING NEURODEGENERATIVE DISEASES BY TARGETING THE PURINERGIC AND/OR ADENOSINE RECEPTORS” (Board of Regents, The University of Texas System, priority 2020, published 2022):
Entries after “also recorded” stand apart in the source; their conditions may differ.

B1: IFN-γ: cytokine used to treat uninfected PBMCs (protein, UniProt P01579 24-161, looked up)
Interferon gamma: QDPYVKEAENLKKYFNAGHSDVADNGTLFLGILKNWKEESDRKIMQSQIVSFYFKLFKNFKDDQSIQKSVETIKEDMNVKFFNSNKKKRDDFEKLTNYSVTDLNVQRKAIHELIQVMAELSPAAKTGKRKRSQMLFRG
B2: Cx43^E2: a peptide that specifically blocks Cx43 hemichannels (peptide)
VH: EVQLQQPGAELVKPGASVKLSCKASGYTFTSYYMYWVKQRPGQGLEWIGGINPSNGGTNFNEKFKNKATLTVDKSSSTAYMQLSSLTSEDSAVYYCTREGNPYYTMNYWGQGTSVTVSS
VL: DIVMTQSPSSLSVSAGEKVTMSCKSSQSLLNSGNQKTYLAWYQQKPGQPPKLLIYGASTRESGVPDRFTGSGSGTDFTLTISSVQAEDLAVYYCQNDHSYPFTFGSGTKLEIK

Tests used:
[1] = target: T1, Panx-1 channels (Homo sapiens, UniProt Q96RD7); test: Ethidium (Etd) dye uptake, PBMCs from HIV-infected individuals; format: cell-based; settings: for effect on spontaneous Panx-1 channel opening (Etd uptake): Prob 500 μM, 10Panx peptide 200 μM; for effect on pannexin-1 channel opening and Etd uptake: FIG. 1F legend: PROB 50 μM, CBX 50 μM, PEP 300 μM, n=60
T1 construct: PBMCs isolated from uninfected individuals maintain the pannexin-1 channels in a closed stage; endogenous in cells; host or cells: freshly isolated human PBMCs (uninfected or HIV-infected donors)
Method: (§1) Dye uptake and time-lapse microscopy. To characterize the functional state of Panx-1 channels, dye-uptake experiments using ethidium (Etd) bromide were performed (Cat #15585011, ThermoFisher, Grand Island, N.Y., USA). Cells were washed twice in HBSS and then exposed to Locke's solution (containing 154 mM NaCl, 5.4 mM KCl, 2.3 mM CaCl2, 5 mM HEPES, and pH 7.4) with 5 μM Etd and time-lapse microscopy were then performed. Phase-contrast and fluorescence microscopy with time-lapse imaging were used to record cell appearance and fluorescence-intensity changes in each condition. Fluorescence was recorded every 30 s. The NIH ImageJ program was used for off-line image analysis and fluorescence quantification. For data representation and calculation of Etd uptake slopes, the average of two independent background fluorescence (FB) (expressed as A.U.) was subtracted from mean fluorescent intensity (F1). Results of this calculation (F1-FB), for at least 20 cells, were averaged and plotted against time (expressed in minutes). Slopes were calculated using Microsoft Excel software and expressed as A.U./min. The microscope and camera settings remained the same in all experiments. Dead cells or cells with a damaged plasma membrane were identified during the time-lapse microscopy as a result of their nonspecific Etd uptake rate, determined by lack of time dependency and stability in dye uptake (not inhibited by channel blockers), and were not quantified.
(§2) However, the chronic effects of HIV infection on Panx-1 channel activity were unknown. To determine the status of the channel, Panx-1 channel opening was determined by Ethidium (Etd, 5 μM) uptake rate Ethidium only crosses the plasma membrane in healthy cells by passing through specific large channels, such as Connexin (Cx) and Pannexin (Panx) hemichannels, and its rate of intracellular accumulation is reflective of channel opening.
To assess the opening of the Panx-1 channels on PBMCs isolated from HIV-infected individuals, the inventors used a similar approach as described above. The inventors analyzed Panx-1 channel opening using dye uptake rate on PBMCs isolated from 60 different HIV-infected individuals, mostly with low to undetectable replication, as described in Table 1.

[2] = tested on: PBMCs obtained from uninfected individuals; test: ATP release by PBMCs from uninfected individuals (ATPlite); format: cell-based, human; settings: for effect on release of ATP in response to HIV-gp120: PBMCs from uninfected individuals, Prob 500 μM, 10Panx1 peptide 300 μM, TAK779 5 μM, AMD3100 5 μM; for induction of ATP secretion: treatment of uninfected PBMCs, 30 min
Method: (§3) ATP Assay. […] Luminescence was measured using a PerkinElmer EnVision Multilabel Plate Reader. […] To assure rigor in these determinations, some samples were submitted for blinded analysis of ATP levels using mass spectrometry (University of North Dakota, N. Dak.).
(§4) Uninfected and HIV-infected PBMCs were isolated as described above.

[3] = tested on: PBMCs obtained from uninfected individuals; test: PGE2 release by PBMCs from uninfected individuals (ELISA); format: cell-based, human; settings: for effect on release of PGE2 in response to HIV-gp120: PBMCs from uninfected individuals, Prob 500 μM, 10Panx1 peptide 300 μM, TAK779 5 μM, AMD3100 5 μM; for induction of PGE2 secretion: treatment of uninfected PBMCs, 30 min
Method: (§5) Analysis of IL-1β and PGE2 release. Plasma/serum was collected, divided into aliquots, and stored at −80° C. There were no freeze-thaw cycles before analysis. Plasma/serum was analyzed for TNF-α, IL-1β (Quantikine ELISA kit; R and D Systems, Minneapolis Minn., USA) and PGE2 (Abcam, Cambridge, Mass., USA) by enzyme-linked immunosorbent assay (ELISA) according to the manufacturer's instructions.
as §4

[4] = tested on: PBMCs obtained from HIV-infected individuals; test: Spontaneous ATP release by PBMCs from HIV-infected individuals; format: cell-based, human; settings: no stimulation, Prob 500 μM, 10Panx1 peptide 300 μM
Method: as §3, §4

[5] = tested on: PBMCs obtained from HIV-infected individuals; test: Spontaneous PGE2 release by PBMCs from HIV-infected individuals; format: cell-based, human; settings: no stimulation, Prob 500 μM, 10Panx1 peptide 300 μM
Method: as §5, §4

[6] = target: T1, Panx-1 channels; test: Ethidium (Etd) dye uptake, PBMCs from uninfected individuals; format: cell-based; settings: for effect on basal Etd uptake: PBMCs from uninfected individuals, Prob 500 μM, CBX 500 μM, 10Panx peptide 200 μM, FIG. 1C; for induction of Panx-1 channel opening: treatment of uninfected PBMCs, 30 min, gp120 1 μg/ml, TNF-α 10 ng/ml, IL-1β 10 U/ml, IFN-γ 10 ng/ml, LPS 1 μg/ml
Method: as §1, §2

[7] = tested on: HIVADA infected PBMCs (lymphocytes and monocytes); test: Transmigration of HIVADA infected PBMCs across the in vitro BBB model in response to CCL2; format: cell-based, human; settings: added to the co-culture; oATP 100 μM, apyrase 100 units/ml; data not shown
Method: (§6) Blood-brain barrier (BBB) model: This in vitro BBB model consists of primary human BMVEC and primary human astrocytes in co-culture on opposite sides of a gelatin-coated, 3 μm pore-size tissue culture insert (Falcon, B D, Franklin Lakes, N.J.) as described by the inventors. Co-cultures were maintained for three days to enable contact between astrocyte endfeet with BMVEC on the opposite side of the model as described. After this, the BBB model was treated with different ATP concentrations (Cat #A1852, Sigma Chemical Co., St. Louis, Mo., USA), and BBB permeability was measured using BSA conjugated to Evans Blue, as described by the inventors.
(§7) PBMCs infected with the HIVADA were added to the top chamber of BBB co-cultures without CCL2 in the bottom chamber (HIV).

[8] = tested on: BBB model (primary human BMVEC and primary human astrocytes); test: BBB disruption after transmigration of HIVADA infected PBMCs; format: cell-based
Method: as §6, §7

[9] = tested on: HIV; test: HIV replication and viral entry; format: cell-based
[10] = tested on: purinergic receptors; settings: in vivo mouse model [116]; cited from earlier work
[11] = target: CD4 on PBMCs from uninfected individuals (human) (UniProt P01730); test: cell-based or functional assay
[12] = added to the co-culture, oATP 100 μM, apyrase 100 units/ml, data not shown

T1 sequence (Q96RD7 whole entry): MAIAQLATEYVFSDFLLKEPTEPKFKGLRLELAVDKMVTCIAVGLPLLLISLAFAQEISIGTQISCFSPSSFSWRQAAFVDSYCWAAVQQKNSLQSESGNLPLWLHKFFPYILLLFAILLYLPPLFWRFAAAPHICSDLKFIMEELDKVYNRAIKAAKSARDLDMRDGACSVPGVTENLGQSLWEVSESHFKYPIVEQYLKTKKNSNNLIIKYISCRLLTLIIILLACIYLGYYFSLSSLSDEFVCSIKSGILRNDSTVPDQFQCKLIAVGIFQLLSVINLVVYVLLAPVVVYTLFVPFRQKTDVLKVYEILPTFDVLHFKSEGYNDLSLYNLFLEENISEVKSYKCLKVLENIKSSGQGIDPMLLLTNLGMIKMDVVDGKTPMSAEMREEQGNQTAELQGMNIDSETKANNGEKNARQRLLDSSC

| Molecule | effect on spontaneous Panx-1 channel opening (Etd uptake) [1] | effect on release of ATP in response to HIV-gp120 [2] | effect on release of PGE2 in response to HIV-gp120 [3] | effect on spontaneous release of ATP [4] | effect on spontaneous release of PGE2 [5] | effect on basal Etd uptake [6] | other results |
| --- | --- | --- | --- | --- | --- | --- | --- |
| c1cc(CN2CCCNCCNCCCNCC2)ccc1CN1CCCNCCNCCCNCC1 [AMD3100] | did not prevent | prevented the release | prevented the release | no significant effects | no significant effects | – | – |
| Cc1ccc(-c2ccc3c(c2)C=C(C(=O)Nc2ccc(C[N+](C)(C)C4CCOCC4)cc2)CCC3)cc1.[Cl-] [TAK779] | did not prevent | prevented the release | prevented the release | no significant effects | no significant effects | – | – |
| CC1(C)[C@@H](OC(=O)CCC(=O)O)CC[C@]2(C)[C@H]3C(=O)C=C4[C@@H]5C[C@@](C)(C(=O)O)CC[C@]5(C)CC[C@@]4(C)[C@]3(C)CC[C@@H]12 [carbenoxolone] | – | – | – | – | – | did not affect | effect on pannexin-1 channel opening and Etd uptake [1]: able to prevent the opening of the pannexin-1 channel and Etd uptake |
| [La] [lanthanum] | did not affect | did not alter | did not alter | did not alter | did not alter | did not have any effect | effect on release of ATP in response to HIV-gp120 ([2]; listed as Lanthanum): did not affect; effect on release of PGE2 in response to HIV-gp120 ([3]; listed as Lanthanum): did not affect; effect on spontaneous release of ATP ([4]; listed as Lanthanum): did not affect; effect on spontaneous release of PGE2 ([5]; listed as Lanthanum): did not affect |
| Nc1ncnc2c1ncn2[C@@H](C=O)O[C@@H](C=O)COP(=O)(O)OP(=O)(O)OP(=O)(O)O [oATP] | – | – | – | – | – | – | effect on transmigration [7]: blocked; effect on BBB disruption [8, 12]: blocked; inhibition of HIV replication and viral entry [9]: potent inhibitor; onset of diabetes and inflammatory bowel disease [10]: can prevent the onset of diabetes and inflammatory bowel disease; systemic blocking of purinergic receptors [10]: good systemic blocker of purinergic receptors |
| CCCN(CCC)S(=O)(=O)c1ccc(C(=O)O)cc1 [probenecid] | – | prevented the release | prevented the release | prevented the release | prevented the release | did not affect | effect on pannexin-1 channel opening and Etd uptake [1]: able to prevent the opening of the pannexin-1 channel and Etd uptake; effect on BBB disruption ([8]; HIVADA infected PBMCs preincubated with blocker, CCL2): reduced BBB disruption |
| IL-1p: cytokine used to treat uninfected PBMCs | – | – | – | – | – | – | induction of Panx-1 channel opening [6]: does not induce; induction of ATP secretion [2]: does not induce; induction of PGE2 secretion [3]: does not induce |
| TNF-α | – | – | – | – | – | – | induction of Panx-1 channel opening [6]: does not induce; induction of ATP secretion [2]: does not induce; induction of PGE2 secretion [3]: does not induce |
| apyrase | – | – | – | – | – | – | effect on transmigration [7]: blocked; effect on BBB disruption [8, 12]: blocked |
| recombinant protein HIV-gp120 (HIV-Bal) (ligand) | – | – | – | – | – | – | release of ATP after 30 min (uninfected PBMCs, gp120 1 µg/ml) [11]: 5.9 µM; release of PGE2 after 30 min (uninfected PBMCs, gp120 1 µg/ml) [11]: 56.8 pg/mL |
| B1 | – | – | – | – | – | – | induction of Panx-1 channel opening [6]: does not induce; induction of ATP secretion [2]: does not induce; induction of PGE2 secretion [3]: does not induce |
| B2 | did not affect | did not alter; also recorded: did not affect | did not alter; also recorded: did not affect | did not alter; also recorded: did not affect | did not alter; also recorded: did not affect | did not have any effect | – |
